Where “and” joins values, the source holds several entries; their conditions need not be identical. Equal entries are not always repeated.
System: MRC-5 cells
Assay: Cytotoxicity in MRC-5 cells
Conditions: for % Effect: CC50 run 30-Apr-2020

COc1cccc2[nH]c(C(=O)N[C@@H](CC(C)C)C(=O)N[C@@H](C[C@@H]3CCNC3=O)C(=O)CO)cc12 [PF-00835231-00]
% Well Effect (0.0316422 uM, minus efflux inhibitor, CC50 run 24-Apr-2020): 5.91% and -1.40%
% Well Effect (0.100053 uM, minus efflux inhibitor, CC50 run 24-Apr-2020): 0.31% and -2.42%
% Well Effect (0.316367 uM, minus efflux inhibitor, CC50 run 24-Apr-2020): 0.82% and -3.88%
% Well Effect (3.16311 uM, minus efflux inhibitor, CC50 run 24-Apr-2020): 2.27% and -2.51%
% Well Effect (3.16311 uM, plus 0.5 uM efflux inhibitor, CC50 run 22-may-2020): 2.26%
% Well Effect (3.16311 uM, plus 0.5 uM efflux inhibitor, CC50 run 24-Apr-2020): -4.43%
% Well Effect (10.0018 uM, minus efflux inhibitor, CC50 run 24-Apr-2020): 4.47% and -3.27%
% Well Effect (10.0018 uM, plus 0.5 uM efflux inhibitor, CC50 run 22-may-2020): 2.88%
% Well Effect (10.0018 uM, plus 0.5 uM efflux inhibitor, CC50 run 24-Apr-2020): -5.99%
% Well Effect (31.6256 uM, minus efflux inhibitor, CC50 run 24-Apr-2020): 0.83% and -8.49%
% Well Effect (31.6256 uM, plus 0.5 uM efflux inhibitor, CC50 run 22-may-2020): 5.31%
% Well Effect (31.6256 uM, plus 0.5 uM efflux inhibitor, CC50 run 24-Apr-2020): -3.70%
% Well Effect (100 uM, minus efflux inhibitor, CC50 run 24-Apr-2020): -3.72% and -12.98%
% Well Effect (100 uM, plus 0.5 uM efflux inhibitor, CC50 run 22-may-2020): -0.43%
% Well Effect (100 uM, plus 0.5 uM efflux inhibitor, CC50 run 24-Apr-2020): -3.29%
% Well Effect (CC50 data, MRC-5 cells, run 22-may-2020, plate GCNS00043792A, [Assay] 0.031642 uM): -3.27% and -2.12%
% Well Effect (CC50 data, MRC-5 cells, run 22-may-2020, plate GCNS00043792A, [Assay] 0.100053 uM): -1.81% and 2.13%
% Well Effect (CC50 data, MRC-5 cells, run 22-may-2020, plate GCNS00043792A, [Assay] 0.316367 uM): -2.43% and 2.23%
% Well Effect (CC50 data, MRC-5 cells, run 22-may-2020, plate GCNS00043792A, [Assay] 1.00035 uM): 1.33% and 1.48%
% Well Effect (CC50 data, MRC-5 cells, run 22-may-2020, plate GCNS00043792A, [Assay] 3.16311 uM): -3.27%
% Well Effect (CC50 data, MRC-5 cells, run 22-may-2020, plate GCNS00043792A, [Assay] 10.0018 uM): -1.55%
% Well Effect (CC50 data, MRC-5 cells, run 22-may-2020, plate GCNS00043792A, [Assay] 31.6256 uM): 0.64%
% Well Effect (CC50 data, MRC-5 cells, run 22-may-2020, plate GCNS00043792A, [Assay] 100 uM): -1.12%
% Well Effect (CC50 data, MRC-5 cells, run 24-Apr-2020, plate GCNS00043676A, [Assay] 0.0316422 uM): -8.00% and -3.89%
% Well Effect (CC50 data, MRC-5 cells, run 24-Apr-2020, plate GCNS00043676A, [Assay] 0.100053 uM): -11.58% and -9.10%
% Well Effect (CC50 data, MRC-5 cells, run 24-Apr-2020, plate GCNS00043676A, [Assay] 0.316367 uM): -6.82% and -8.60%
% Well Effect (CC50 data, MRC-5 cells, run 24-Apr-2020, plate GCNS00043676A, [Assay] 1.00035 uM): -10.61% and -9.50%
% Well Effect (CC50 data, MRC-5 cells, run 24-Apr-2020, plate GCNS00043676A, [Assay] 3.16311 uM): -5.78%
% Well Effect (CC50 data, MRC-5 cells, run 24-Apr-2020, plate GCNS00043676A, [Assay] 10.0018 uM): -3.01%
% Well Effect (CC50 data, MRC-5 cells, run 24-Apr-2020, plate GCNS00043676A, [Assay] 31.6256 uM): -3.17%
% Well Effect (CC50 data, MRC-5 cells, run 24-Apr-2020, plate GCNS00043676A, [Assay] 100 uM): 0.84%
% Effect (Concentration 0.78125, minus efflux inhibitor): -1.26% and -6.59%
% Effect (Concentration 1.5625, minus efflux inhibitor): -9.86% and -8.48%
% Effect (Concentration 3.125, minus efflux inhibitor): -3.51% and -6.64%
% Effect (Concentration 6.25, minus efflux inhibitor): -4.42% and -7.91%
% Effect (Concentration 12.5, minus efflux inhibitor): -6.72% and -7.11%
% Effect (Concentration 25, minus efflux inhibitor): -6.44% and -6.96%
% Effect (Concentration 50, minus efflux inhibitor): -10.88% and -4.85%
% Effect (Concentration 100, minus efflux inhibitor): -4.27% and -7.38%

Reference: paper PMC8523698, “Preclinical characterization of an intravenous coronavirus 3CL protease inhibitor for the potential treatment of COVID19” (Nature Communications, 2021)
